According to patent publication US11252960B2 (KIMBERLY-CLARK WORLDWIDE, INC., priority 2017, dated 2022):

Tests used:
[1] = 25° C., cited from earlier work; for Solubility of Parabens, Ethanol: solvent ethanol; for Solubility of Parabens, Propylene glycol: solvent propylene glycol; for Solubility of Parabens, Water: solvent water
[2] = system: Candida albicans (ATCC 10231); test: Anti-fungal Minimum Inhibitory Concentration (MIC) Method, microbroth dilution; format: cell-based; conditions: Table 4; RPMI-1640, 25° C., 48 hours, pH 4.5-adjusted stock
Procedure: (§1) Anti-Bacterial and Anti-Fungal Minimum Inhibitory Concentration (MIC) Method Method: Microbroth Dilution Method (96-well format). Test item: […] Solvent: Sterile MilliQ water and 0.1 M Citrate Buffer pH 4.5 Media used: • Bacterial: Cation-Adjusted Mueller-Hinton Broth (CAMHB) • Fungi: RPMI-1640 Fungi: • Incubation Temperature: • 25° C. (Candida albicans) • 35° C. (Aspergillus brasiliensis) • Incubation Time: 48 hours • Inoculum Size: 5×10^4 cfu/mL • Strains: • Candida albicans (ATCC 10231) • Aspergillus brasiliensis (ATCC 16404) • End point: Inhibition of growth, Spectrophotometer Reading @ 600 nm • Reference standards: […] All solubilized and pH 4.5-adjusted test compounds were filter-sterilized before subjecting to MIC study. […] All the strains were inoculated on their respective agar medium and incubated under conditions/durations detailed above. • Preparation of inoculum: • The bacterial colony suspension in 0.85% saline was adjusted to 1 McFarland's standard using […] which was further diluted to 1:100 in CAMHB. The fungal suspension for inoculation was prepared in 0.85% saline from 6 days old culture (for mold, A. brasiliensis) and from 2 days old culture (for yeast, C. albicans) from Sabouraud Dextrose agar medium. […] Micro titer plates were prepared as per the CLSI recommendations. One hundred and seventy five microliters of Cation-adjusted Muller Hinton Broth (CAMHB) was added to the first column of a 96 well flat bottom plate, which is the media control. Second column is for the stocks of the test compounds and reference standards from which dilutions are made. Then 175 μL of CAMHB was added to the 5th, 8th and 11th columns, 75 μL of CAMHB to the 4th, 7th and 10th columns and 50 μL of CAMHB to the 3rd, 6th and 9th columns and the last column was the organism control.

[3] = system: Aspergillus brasiliensis (ATCC 16404); test: as above; format: cell-based; conditions: Table 4; RPMI-1640, 35° C., 48 hours, pH 4.5-adjusted stock
Procedure: as §1

[4] = Determination of Dissociation Constant (pKa) by Potentiometric Titration Method; format: physicochemical; conditions: ultrapure water, pH 4.5, Table 3, 0.1 mg/ml, 22° C.
Procedure: Potentiometric Titration Method: A calibrated pH meter was used for the assay. 50 mL solution of each test/reference item solution (0.1 mg/mL) was added to four beakers (two for acid titration and two for base titration). 0.1 N Sodium hydroxide (NaOH) solution was prepared as titrant solution. The pH electrode was placed into the beaker containing test/reference item solution. The initial pH of the solution will be recorded. 100 μL of 0.1 N NaOH was added successively with stirring and the pH at each addition was recorded. Base titrations were carried out individually in duplicates until a sudden shift in the pH was observed.

[5] = system: Staphylococcus aureus (ATCC 6538); test: Anti-bacterial Minimum Inhibitory Concentration (MIC) Method, microbroth dilution; format: cell-based; conditions: Table 4; CAMHB, 37° C., 24 hours, pH 4.5-adjusted stock
Procedure: as §1, with “RPMI-1640 […]” for “RPMI-1640”

[6] = system: Burkholderia cepacia (ATCC 25416); test: as above; format: cell-based; conditions: Table 4; CAMHB, 37° C., 24 hours, pH 4.5-adjusted stock
Procedure: as §1, with “RPMI-1640 […]” for “RPMI-1640”

[7] = system: Pseudomonas aeruginosa (ATCC 9027); test: as above; format: cell-based; conditions: Table 4; CAMHB, 37° C., 24 hours, pH 4.5-adjusted stock
Procedure: as §1, with “RPMI-1640 […]” for “RPMI-1640”

[8] = system: Escherichia coli (ATCC 8739); test: as above; format: cell-based; conditions: Table 4; CAMHB, 37° C., 24 hours, pH 4.5-adjusted stock
Procedure: as §1, with “RPMI-1640 […]” for “RPMI-1640”

[9] = format: physicochemical; conditions: pH 4.5
Procedure: This water was used as a test media for determining the solubility of test/reference items. Stock solutions of concentration 1 mg/mL for test items/reference items was prepared in methanol. The stock solution will be used for preparation of calibration curve standards. Calibration curve of test/reference items was prepared by serially dilution consisting of 4-5-6 concentrations in 96 well format. […] The method was as follows: Calibration curve of test items were prepared by serial dilution consisting of 8 concentrations. […] Water, 50:50). […] 40 mg of test items were weighed into tubes. […] The initial pH of the solubility samples were recorded. […] Then, the solutions were observed visually for any precipitation. […] An aliquot of the supernatant were diluted with equal volume of methanol. […] The samples were then transferred to UV plate and scanned at λmax of that particular test/reference item. Compound #12 was transferred to auto-sampler vials and submitted for LC-MS/MS analysis.

| MIC (%) C. albicans [2] | MIC (%) A. brasiliensis [3] | pKa [4] | MIC (%) S. Aureus [5] | MIC (%) B. cepacia [6] | MIC (%) P. aeruginosa [7] | MIC (%) E. coli [8] | Solubility (wt %) [9] | Compound | Solubility of Parabens, Ethanol [1] | Solubility of Parabens, Propylene glycol [1] | Solubility of Parabens, Water [1] |
| --- | --- | --- | --- | --- | --- | --- | --- | --- | --- | --- | --- |
| – | – | – | – | – | – | – | – | CCCCOC(=O)c1ccc(O)cc1 [Butylparaben] | 68 % w/w | 49 % w/w | 0.02 % w/w |
| 0.1175% | 0.0588% | > 7 | 0.1175% | 0.1175% | >0.1175% | 0.0588% | 0.24 wt % | CCC(O)COC(=O)c1ccccc1 (centres unmarked) [Compound 12, Benzoic acid 2-hydroxy-butyl ester] | – | – | – |
| – | – | – | – | – | – | – | – | CCOC(=O)c1ccc(O)cc1 [Ethylparaben] | 41 % w/w | 20 % w/w | 0.11 % w/w |
